Experimental findings from US20230242538A1, “PanK Modulators and Methods Using Same” (YALE UNIVERSITY, priority 2020, published 2023) are described below.

Experiment [1] concerns the target A. fumigatus enzyme (AfPanK) (Aspergillus fumigatus, UniProt Q4WWV3). The experiment in a line: Inhibition of A. fumigatus pantothenate kinase (AfPanK). The class given is biochemical. Particulars: read-out: A. fum. IC50.
The test system of experiment [2] is S. cerevisiae monster. Briefly: Growth inhibition of S. cerevisiae monster. To be noted: Saccharomyces cerevisiae; 200 μM of compound (μg/mL equivalent in brackets), VFM medium with no pantothenic acid, 24 h, 10^5 cells/ml. The class given is cell-based. Here is the method: In Table 1, “mixed” indicates a compound that is an activator at lower concentrations and is an inhibitor at higher concentrations. % growth inhibition S. cerevisiae monster was determined at 200 μM of compound in VFM medium with no pantothenic acid at 24 h (10^5 cells/ml).

Experiment [3] relates to HeLa cells. The experiment in a line: General toxicity against HeLa cells, 72 hr. The class given is cell-based. Particulars: for EC50: Homo sapiens, HeLa. Here is the method: (§1) Compounds of interest were assayed for their activity as inhibitors of fungal pantothenate kinase (PanK), modulators of human PanK, and general toxicity against HeLa cells.
Experiment [4] has as its target hPanK3 (Homo sapiens, UniProt Q9H999). Briefly: Modulation of human PanK (hPanK3). The class given is biochemical. Particulars: for IC50: Table 1; for AC50: Table 2, activation. The method, then:
as §1

Experiment [5] deals with T1, Cab1 (Saccharomyces cerevisiae, UniProt Q04430).
T1 construct: His6; made in house
The experiment in a line: Inhibition of Cab1 pantothenate kinase. In kind it is biochemical. The method, then:
The activity of recombinant His6-tagged Cab1p and cab1^G351S was determined in vitro using the Kinase-Glo Plus Luminescent Kinase (Kinase-Glo) assay as described in Chiu, et al., 2017, Scientific Reports 7:14234. The assay measures the amount of ATP remaining in solution following the kinase reaction. Briefly, kinase buffer consisted of 100 mM Tris-HCl pH 7.4, 10 mM MgCl2, 100 μM pantothenate (PA), 100 μM ATP, and 0.5 mg/mL γ-globulin. Kinase reactions were initiated with the addition of 500 ng of purified Cab1p or Cab1^G351S in elution buffer (10 mM Tris pH 7.4, NaCl 10 mM, 500 mM imidazole). Heat-inactivated (80° C. for 20 min) Cab1p or Cab were used as controls. Samples were incubated at room temperature for 1 hour. At the end of the incubation, an equal volume (10 μL) of Kinase-Glo reagent was added to each sample, the plates were further incubated for 5 min and luminescence was recorded using BioTek SynergyMx microplate reader (excitation wavelength 485; emission wavelength 528).
as §1

Where [6] appears, read: Table 1, read-out: EC50 HeLa Tox 72 hr.
The mark [7] stands for this setting: Table 2, read-out: EC50 HeLa Tox 72 hr.
Where [8] appears, read: read-out: A cer. Cab1 IC50 μM, Table 2.

Like-named read-outs stand apart in the source and are kept apart here. Some results are limits rather than exact numbers.

Sequence of hPanK3 (Q9H999 whole entry): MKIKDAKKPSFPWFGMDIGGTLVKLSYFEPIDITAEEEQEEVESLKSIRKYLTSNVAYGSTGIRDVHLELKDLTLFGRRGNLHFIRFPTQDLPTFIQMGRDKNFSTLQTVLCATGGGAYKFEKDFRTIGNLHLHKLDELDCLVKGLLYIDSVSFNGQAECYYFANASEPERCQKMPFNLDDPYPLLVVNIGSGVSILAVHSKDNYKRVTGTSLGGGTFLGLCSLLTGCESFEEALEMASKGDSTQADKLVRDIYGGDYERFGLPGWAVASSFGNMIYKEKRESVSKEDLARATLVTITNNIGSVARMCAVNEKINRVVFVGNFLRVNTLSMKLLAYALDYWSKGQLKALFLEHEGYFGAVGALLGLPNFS
Sequence of A. fumigatus enzyme (AfPanK) (Q4WWV3 entry or part of it): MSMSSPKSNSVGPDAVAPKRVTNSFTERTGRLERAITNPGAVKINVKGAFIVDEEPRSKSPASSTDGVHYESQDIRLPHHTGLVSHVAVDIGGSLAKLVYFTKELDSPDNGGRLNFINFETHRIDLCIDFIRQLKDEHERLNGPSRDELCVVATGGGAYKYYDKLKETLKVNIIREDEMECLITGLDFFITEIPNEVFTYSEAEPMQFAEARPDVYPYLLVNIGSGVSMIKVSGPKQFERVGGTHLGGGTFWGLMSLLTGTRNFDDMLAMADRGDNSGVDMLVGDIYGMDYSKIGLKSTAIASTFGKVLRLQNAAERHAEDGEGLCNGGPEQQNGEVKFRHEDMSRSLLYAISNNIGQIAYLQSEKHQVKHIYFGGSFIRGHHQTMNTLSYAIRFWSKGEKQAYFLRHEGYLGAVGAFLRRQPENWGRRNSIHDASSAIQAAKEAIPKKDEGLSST
T1 sequence (Q04430 whole entry): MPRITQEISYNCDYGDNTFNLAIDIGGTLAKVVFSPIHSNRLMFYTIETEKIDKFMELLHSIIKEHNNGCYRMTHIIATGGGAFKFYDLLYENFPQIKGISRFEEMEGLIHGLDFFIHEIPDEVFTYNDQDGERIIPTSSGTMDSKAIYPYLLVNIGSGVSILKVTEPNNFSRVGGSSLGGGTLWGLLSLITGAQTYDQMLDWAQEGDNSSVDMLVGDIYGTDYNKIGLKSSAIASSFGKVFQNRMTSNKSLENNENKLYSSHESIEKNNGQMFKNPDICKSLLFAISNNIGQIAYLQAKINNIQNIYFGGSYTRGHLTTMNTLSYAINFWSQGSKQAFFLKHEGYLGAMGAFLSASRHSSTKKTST

Take `CC(=O)N1CCN(Cc2cc(=O)n3nc(NCc4ccc(C(C)(C)C)cc4)nc3[nH]2)CC1` [Compound A1]: the IC50 in experiment [1] (Table 1) was 0.036 µM. Besides, the inhibition at 200 µM in experiment [2] turned out to be 98%. Also, the “EC50 HeLa Tox 72 hr μM” value in experiment [3] (Table 1) is “Inactive”.

In the case of `CC(C)(C)OC(=O)N1CCN(Cc2cc(=O)n3nc(NCc4ccc(C(C)(C)C)cc4)nc3[nH]2)CC1` [Compound A2], in experiment [1] (Table 1), the IC50 worked out at 0.083 µM. In experiment [2], the inhibition at 200 µM is 87%. Moreover, in experiment [3] (Table 1), the “EC50 HeLa Tox 72 hr μM” value is reported as “Inactive”.

Consider `Cc1cc(C(=O)O)n2nc(NCc3ccc(C(C)(C)C)cc3)nc2n1` [Compound A3], for which the IC50 in experiment [1] (Table 1) is 0.086 µM; in experiment [4], above 5 µM. Moreover, the inhibition at 200 µM in experiment [2] worked out at 87%. In experiment [3] (setting [6]), the EC50 was above 100 µM.

Take `Cc1cc(C(=O)NCC(N)=O)n2nc(NCc3ccc(C(C)(C)C)cc3)nc2n1` [Compound A4]: the IC50 in experiment [1] (Table 1) was 2.4 µM; in experiment [4] it was above 100 µM. The inhibition at 200 µM in experiment [2] was determined as 62%.

Turning to `CN1CCN(Cc2cc(=O)n3nc(-c4ccc(C(C)(C)C)cc4)nc3[nH]2)CC1` [Compound A5, 2-(4-(tert-butyl)phenyl)-5-((4-methylpiperazin-1-yl)methyl)-[1,2,4]triazolo[1,5-a]pyrimidin-7(4H)-one], the figures for the IC50 in experiment [1] (Table 1) and in experiment [4] were 5.5 µM and above 100 µM, respectively. Further, the inhibition at 200 µM in experiment [2] was 86%. The “EC50 HeLa Tox 72 hr μM” value in experiment [3] (Table 1) is “Inactive”.

As for `COc1cc(CN2CCOCC2)nc2nc(NCc3ccc(C(C)(C)C)cc3)nn12` [Compound A6], the figures for the IC50 in experiment [1] (Table 1) and in experiment [4] were 31 µM and above 100 µM, respectively. For the same molecule, in experiment [2], the inhibition at 200 µM came to 34%. Besides, the EC50 in experiment [3] (setting [6]) was above 100 µM.

With `Cc1cc(C(=O)Nc2ccccn2)n2nc(NCc3ccc(C(C)(C)C)cc3)nc2n1` [Compound A7], the IC50 in experiment [1] (Table 1) is above 50 µM; in experiment [4] it was above 100 µM. In experiment [2], the inhibition at 200 µM came out at 79%.

Consider `COC(=O)CNC(=O)c1cc(C)nc2nc(NCc3ccc(C(C)(C)C)cc3)nn12` [Compound A8], for which the IC50 in experiment [1] (Table 1) is above 50 µM; in experiment [4] it was above 100 µM. The inhibition at 200 µM in experiment [2] came out at 67%.

As for `Cc1cc(C(=O)NCCO)n2nc(NCc3ccc(C(C)(C)C)cc3)nc2n1` [Compound A9], the IC50 in experiment [1] (Table 1) was above 50 µM; in experiment [4], above 100 µM. Besides, the inhibition at 200 µM in experiment [2] came to 102%.

For the molecule `CC(C)NCc1cc(=O)n2nc(NCc3ccc(C(C)C)cc3)nc2[nH]1` [Compound A10, 5-((isopropylamino)methyl)-2-((4-isopropylbenzyl)amino)-[1,2,4]triazolo[1,5-a]pyrimidin-7(4H)-one], the IC50 in experiment [1] (Table 1) was determined as 53 µM. Also, the inhibition at 200 µM in experiment [2] turned out to be 13%.

`CC(C)(C)c1ccc(CNc2nc3nc(CN4CCOCC4)cc(OCC(N)=O)n3n2)cc1` [Compound A11]: the IC50 in experiment [1] (Table 1) worked out at 62 µM. Besides, in experiment [2], the inhibition at 200 µM turned out to be 77%.

As for `CC(C)(C)c1ccc(CNc2nc3nc(CN4CCOCC4)cc(OCCO)n3n2)cc1` [Compound A12], the IC50 in experiment [1] (Table 1) is 68 µM. In addition, in experiment [2], the inhibition at 200 µM worked out at 94%.

Regarding `CC(C)(C)c1ccc(CNc2nc3nc(CN4CCOCC4)cc(N)n3n2)cc1` [Compound A13], the IC50 in experiment [1] (Table 1) worked out at 71 µM. Further, the inhibition at 200 µM in experiment [2] was 25%. Besides, the concentration for a half-maximal effect (EC50) in experiment [3] (setting [6]) was above 100 µM.

Turning to `CC(C)(C)c1ccc(CNc2nc3nc(CN4CCOCC4)cc(OCC(=O)O)n3n2)cc1` [Compound A14], the IC50 in experiment [1] (Table 1) came out at 78 µM. Further, the inhibition at 200 µM in experiment [2] is 49%.

In the case of `CCOc1cc(CN2CCOCC2)nc2nc(NCc3ccc(C(C)(C)C)cc3)nn12` [Compound A15], the IC50 in experiment [1] (Table 1) stood at 98 µM. The inhibition at 200 µM in experiment [2] was found to be 37%.

Turning to `CC(C)(C)c1ccc(CNc2nc3nc(CN4CCOCC4)cc(Cl)n3n2)cc1` [Compound A16], the figures for the IC50 in experiment [1] (Table 1) and in experiment [4] were around 100 µM and above 100 µM, respectively. Besides, in experiment [2], the inhibition at 200 µM is 80%. In experiment [3] (setting [6]), the EC50 is 2.3 µM.

On to `Cc1cc(C(=O)NCc2cccnc2)n2nc(NCc3ccc(C(C)(C)C)cc3)nc2n1` [Compound A17], for which the values for the IC50 in experiment [1] (Table 1) and in experiment [4] were around 100 µM and above 100 µM, respectively. The inhibition at 200 µM in experiment [2] came to 63%.

For `Cc1cc(C(=O)NCC(=O)O)n2nc(NCc3ccc(C(C)(C)C)cc3)nc2n1` [Compound A18], the results for the IC50 in experiment [1] (Table 1) and in experiment [4] were around 100 µM and above 100 µM, respectively. Also, the inhibition at 200 µM in experiment [2] is 29%.

`CC(C)c1ccc(CNc2nc3[nH]c(CN4CCOCC4)cc(=O)n3n2)cc1` [Compound B1, 2-((4-isopropylbenzyl)amino)-5-(morpholinomethyl)-[1,2,4]triazolo[1,5-a]pyrimidin-7(4H)-one]: the IC50 in experiment [1] (Table 2) came to 0.25 µM; in experiment [5] it was 0.43 µM. This molecule yielded an AC50 in experiment [4] of 0.0017 µM. In addition, the “EC50 HeLa Tox 72 hr μM” value in experiment [3] (Table 2) is given as “Inactive”.

As for `Cc1cc(=O)n2nc(NCc3ccc(C(C)C)cc3)nc2[nH]1` [Compound B2, 2-((4-isopropylbenzyl)amino)-5-methyl-[1,2,4]triazolo[1,5-a]pyrimidin-7(4H)-one], the IC50 in experiment [1] (Table 2) is 0.27 µM; in experiment [5], above 100 µM. In addition, the AC50 in experiment [4] worked out at 0.0053 µM. For the same molecule, the EC50 in experiment [3] (setting [7]) was above 100 µM.

As to `Cc1ccccc1-c1nc2[nH]c(CNc3ccccc3)cc(=O)n2n1` [Compound B3, 5-((phenylamino)methyl)-2-(o-tolyl)-[1,2,4]triazolo[1,5-a]pyrimidin-7(4H)-one], the figures for the IC50 in experiment [1] (Table 2) and in experiment [5] were 10 µM and above 100 µM, respectively. Further, in experiment [4], half-maximal activity (AC50) was put at 0.024 µM. In addition, in experiment [3] (Table 2), the “EC50 HeLa Tox 72 hr μM” value was “Inactive”.

Take `CC(C)c1ccc(CNc2nc3[nH]c(CN4CCCC4)cc(=O)n3n2)cc1` [Compound B4, 2-((4-isopropylbenzyl)amino)-5-(pyrrolidin-1-ylmethyl)-[1,2,4]triazolo[1,5-a]pyrimidin-7(4H)-one]: the results for the IC50 in experiment [1] (Table 2) and in experiment [5] were 11 µM and above 100 µM, respectively. Moreover, in experiment [4], the AC50 was 0.032 µM. Further, the “EC50 HeLa Tox 72 hr μM” value in experiment [3] (Table 2) is listed as “Inactive”.

In the case of `CNc1cc(CN2CCOCC2)nc2nc(NCc3ccc(C(C)(C)C)cc3)nn12` [Compound B5], the IC50 stood at 28 µM in experiment [1] (Table 2) and 9.4 µM in experiment [5] (setting [8]). Further, in experiment [4], the AC50 turned out to be 0.038 µM. Besides, in experiment [3] (setting [7]), the EC50 is above 100 µM.

As for `CC(C)(C)c1ccc(CNc2nc3[nH]c(CN4CCOCC4)cc(=O)n3n2)cc1` [Compound B6], the IC50 is 0.26 µM in experiment [1] (Table 2) and 0.19 µM in experiment [5] (setting [8]). In experiment [4], this molecule showed an AC50 of 0.058 µM. The “EC50 HeLa Tox 72 hr μM” value in experiment [3] (Table 2) is listed as “Inactive”.

As for `CN(C)c1cc(CN2CCOCC2)nc2nc(NCc3ccc(C(C)(C)C)cc3)nn12` [Compound B7], the IC50 was 44 µM in experiment [1] (Table 2) and above 100 µM in experiment [5] (setting [8]). The same molecule registered an AC50 in experiment [4] of 0.076 µM. Also, the EC50 in experiment [3] (setting [7]) is above 100 µM.

`CN1CCN(Cc2cc(=O)n3nc(NCc4ccc(C(C)(C)C)cc4)nc3[nH]2)CC1` [Compound B8]: the values for the IC50 in experiment [1] (Table 2) and in experiment [5] (setting [8]) were 0.89 µM and 0.55 µM, respectively. The molecule also came in with an AC50 in experiment [4] of 0.16 µM. In experiment [3] (Table 2), the “EC50 HeLa Tox 72 hr μM” value is given as “Inactive”.

`CC(C)(C)c1ccc(CNc2nc3[nH]c(CN4CCCCC4)cc(=O)n3n2)cc1` [Compound B9]: the results for the IC50 in experiment [1] (Table 2) and in experiment [5] (setting [8]) were 1.8 µM and 30 µM, respectively. Moreover, the AC50 in experiment [4] is 0.27 µM. The EC50 in experiment [3] (setting [7]) is above 100 µM.
